Assay results taken from the METLIN SMRT retention time set (Domingo-Almenara et al. 2019).

Test: gradient 5% acetonitrile 3 min, to 50% in 2 min, to 85% in 15 min, held 3 min, 100 µL/min
Conditions: column: Zorbax Extend-C18 2.1 x 50 mm; eluents: water / acetonitrile, 0.1% formic acid
How it was run: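 Retention times of pure standards were taken from adduct peaks that were selected by computer and manually inspected. Over 3 months, mixtures of ~100 molecules were run by HPLC–quadrupole time-of-flight mass spectrometry in positive and negative ionization mode. The Zorbax Extend-C18 column (2.1 × 50 mm, 1.8 μm) ran at 100 μL/min in water and acetonitrile, each containing 0.1% formic acid, with 40 μL dead volume and 900 μL dwell volume.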

Structure (SMILES) | RP-LC retention time [s]
CCn1nccc1C(=O)N1CCN(c2cc(-c3ccc(Cl)cc3)[nH]n2)CC1 | 781
CCn1c(C(=O)NCCN2CCCCCC2)c(N2CCCC2=O)c2cc(F)ccc21 | 664
COc1ccccc1-c1nc(Cn2nnc(-c3nc(-c4ccccn4)no3)c2C)c(C)o1 | 827
Cc1ccc(Nc2c(-c3ccc(Cl)cc3)nc3cnccn23)c(Br)c1 | 1170
COC(=O)c1c(C)[nH]c(C(=O)N2CCC(CC(=O)NC(c3cccs3)C(C)C)CC2)c1C (centres undefined) | 805
COCC(=O)Nc1ccc2nc(N3CCN(CC(=O)N4CCCCC4)CC3)cc(C(=O)O)c2c1 | 558
CCn1c(=O)c2ccn(CC(=O)NCc3cc(OC)ccc3OC)c2n(CC)c1=O | 811
O=C(c1ccc(-c2csc(C3CC3)n2)cc1)N1CCN(c2ncccn2)CC1 | 912
Cc1ccc(C)c(NC(=O)Cn2c(N3CCOCC3)nc(C)cc2=O)c1 | 770
COc1ccc(-c2nc3ncccn3c2Nc2c(C)cccc2C)cc1 | 765
O=C(CN1CCCCC1c1nc(C2CC2)no1)Nc1cccnc1 (centres undefined) | 592
COc1ccc(C)cc1NC(=O)N1CCCC1c1cc(C(C)C)on1 (centres undefined) | 1050
Clc1cccc(Nc2c(-c3ccccc3)nc3cnccn23)c1 | 921
CCOC(=O)c1c(C)oc2nc(C)nc(Nc3cc(C)ccc3OC)c12 | 1350
Cc1cccc(OCc2nc(C)c(C(=O)Nc3nc(-c4ccc(C)c(C)c4)cs3)s2)c1 | 1410
CN1CCn2cc(S(=O)(=O)Nc3cc(F)cc(F)c3)cc2C1=O | 727
Cc1cc(F)ccc1NC(=O)c1cnn2c1CCCC2 | 720
CCc1nnc(-c2ccc(S(=O)(=O)N3CCN(C4CCCCC4)CC3)o2)o1 | 637
CN(C)CC(=O)N1CC(F)(F)C[C@H]1c1nc(C2CC2)no1 | 584
Cc1nn2c(N3CCN(c4ccccn4)CC3)cc(C(C)(C)C)nc2c1-c1ccc(F)cc1 | 1090
COc1ccc(C(=O)Nc2nc(-c3ccc4c(c3)NC(=O)C(C)O4)c(C)s2)cc1OC (centres undefined) | 867
CC(C)c1ccc(Nc2nc3ccncc3n(Cc3ccccc3)c2=O)cc1 | 886
CCN1CCN(c2nnc(-c3nc(C4CC4)no3)c3ccccc23)CC1 | 622
COc1cccc2[nH]c(C(=O)NCCC(=O)NCCc3c[nH]c4ccccc34)cc12 | 662
Cc1ccc(Nc2c(-c3cccc(Br)c3)nc3ccccn23)cc1 | 778
CCC1(O)CCOC2(CCN(C(=O)C3CCCCCC3)CC2)C1 (centres undefined) | 823
Cc1ccc2c(c1)OCC(=O)N2Cc1nc(-c2ccc(C(C)(C)C)cc2)no1 | 1290
CSc1cccc(NC(=O)N2CCc3nc(CNC(=O)C4CCC4)n(C)c3C2)c1 | 632

Structure (SMILES) | RP-LC retention time [s]
O=C(CCC[C@@H]1[C@H]2CCCN3CCC[C@@H](CN1C(=O)C1CC1)[C@@H]23)Nc1ccccc1 | 609
CC12C=CC(O1)C1C(=O)N(c3ccc(N4CCOCC4)cc3)C(=O)C12 (centres undefined) | 662
CCc1nc2cc(-c3noc(CNC(=O)Cc4ccc(Cl)cc4)n3)ccc2o1 | 882
COc1ccc(-c2nn3c(-c4ccc5ccccc5n4)nnc3s2)cc1OC | 886
COC(=O)c1ccc(NC(=O)c2sc(-c3cn(C)c4ncccc34)nc2C)cc1 | 1080
CC(C)c1cc(C(=O)Nc2ccc(F)c(Cl)c2)nn1C1CCS(=O)(=O)C1 (centres undefined) | 997
CC(C)CC(=O)N1CC(c2nc(-c3cccnc3)no2)C2(CCOCC2)C1 (centres undefined) | 706
CCOC(=O)c1sc2nc(C)cc(C)c2c1N(C(C)=O)C(C)=O | 860
CN(C)C(=O)c1ccc2c(c1)nc(CN1CCN(C(=O)NC3CCCCC3)CC1)n2C | 565
CCN1C(=O)C2CC3(CCN(Cc4ccc5cc[nH]c5c4)CC3)CN2C1=O (centres undefined) | 621
O=C(CN1CCN(Cc2ccc(F)cc2)C1=O)NCC1CCCCC1 | 854
Cc1ccc(S(=O)(=O)NC2CCN(C(=O)C3CC(=O)N(C4CCCC4)C3)CC2)cc1 (centres undefined) | 727
CCCCNS(=O)(=O)c1cc(-c2[nH]ncc2C(=O)N2CCCC2)oc1C | 668
CC(C)NC(=O)N1CC[C@H](n2c(=O)n(C)c3cccnc32)C1 | 632
CCOC(=O)c1sc(NC(=O)C(CC)Sc2nc(C)cc(C)n2)nc1C (centres undefined) | 1080
Cc1ccc(F)cc1NC(=O)c1cc2n(n1)CCCC2 | 949
CNC(=O)c1cccc(Nc2c(-c3ccc(SC)cc3)nc3cnccn23)c1 | 692
CCc1ccc(-c2noc(Cn3c(=O)n(Cc4ccc(OC)cc4)c(=O)c4sccc43)n2)cc1 | 1190
COC(=O)c1ccc2c(=O)n(-c3ccc(F)c(Cl)c3)c(N3CCOCC3)nc2c1 | 967
CCNc1nc(C)cc(N2CCN(S(=O)(=O)c3ccc(OC)c(C)c3)CC2)n1 | 723
CCCC(=O)NC1(c2nc(-c3ccncc3)no2)CCCCC1 | 747
Cc1nn(C(C)C(=O)NCCc2c[nH]c3ccccc23)c(=O)c2c(C)n(-c3ccccc3)nc12 (centres undefined) | 904
CCOC(=O)c1nc(Nc2cc(Cl)c(OC)cc2OC)c2ccccc2n1 | 964
O=C(C1CCCN(c2ccc(Sc3ccc(Br)cc3)nn2)C1)N1CCSCC1 (centres undefined) | 932
O=C(NC1CCCCC1)N1CCCC(c2nnnn2-c2ccccc2)C1 (centres undefined) | 818
COc1ccc(C2c3c(oc4ccc(Br)cc4c3=O)C(=O)N2C)cc1OC (centres undefined) | 774
Cn1nc(C2CCN(C(=O)C3CCCO3)CC2)c2c1CCOC2 (centres undefined) | 586

Other lines, results leading:

RP-LC retention time [s] | Structure (SMILES)
780 | CN(C)S(=O)(=O)c1ccc(NC(=O)Cc2ccc(F)cc2)cc1
982 | Cc1cccc(CNC(=O)CCC2CCN(S(=O)(=O)c3ccccc3C)CC2)c1
934 | Cc1nc(-c2cc3ccccc3nc2N2CCN(C(=O)Cc3ccccc3)CC2)no1
699 | CCOc1ccc(S(=O)(=O)N2CCC(C(=O)NCCO)CC2)cc1C
758 | Cc1cc(C)cc(NC(=O)Cn2cc(C(=O)N3CCCC3)c(=O)c3ccc(C)nc32)c1
733 | COc1ccccc1NS(=O)(=O)c1cc2n(c1)CCN(C(C)C)C2=O
1110 | COC(=O)c1c(-c2ccccc2)csc1NC(=O)c1ccnn1C
792 | CC(C(=O)NCc1nn(C)c2ccccc12)c1ccccc1 (centres undefined)
981 | COc1cccc(-c2noc(CN3C(=O)COc4ccccc43)n2)c1
662 | CN1CCn2cc(S(=O)(=O)Nc3cccc(C#N)c3)cc2C1=O
966 | Cc1ccc(C)c(CNC(=O)c2cc3c(=O)n(C)c4ccccc4n3n2)c1
644 | CCNC(=O)C1CCCN(c2nc3ncn(CC(=O)Nc4ccccc4)c(=O)c3s2)C1 (centres undefined)
822 | O=C(NCC(=O)N1CCCc2ccccc21)c1cccc(Br)c1
812 | Cc1ccc(C)c(NC(=O)Cn2ncc3c(c2=O)N(CC2CC2)C(=O)CS3)c1
1010 | CN1c2cc(Cl)ccc2C(=O)NC12CCN(C(=O)NCc1cccc(F)c1)CC2
937 | CCN(c1ccccc1)S(=O)(=O)c1ccc2c(c1)N(C(C)=O)CCCS2
1090 | Cc1ccc(NC(=O)C2CCN(S(C)(=O)=O)c3cc(Cl)ccc3O2)cc1C (centres undefined)

RP-LC retention time [s] | Structure (SMILES)
830 | CCc1noc(NC(C)=O)c1-c1ccc(C)c(S(=O)(=O)Nc2ccc(C)cc2)c1
890 | CCCn1cc(S(=O)(=O)Nc2cc(F)ccc2F)c2cccnc21
842 | CCn1cc(-c2ccc(OC)cc2)cc1C(=O)N(C)C
801 | Cc1ccc2[nH]cc(CCN3CC(C(=O)Nc4ccccc4)CC3=O)c2c1 (centres undefined)
756 | O=C1NC2(CCN(C(=O)c3cccc(F)c3)CC2)Nc2c(Cl)cccc21
1230 | CCOc1ccc(S(=O)(=O)N2CCCC2c2nc(-c3cccc(Cl)c3)no2)cc1 (centres undefined)
836 | COc1cc2c(C(=O)Oc3cccnc3)cn(-c3ccccc3)c(=O)c2cc1OC
1130 | Cc1ccc2c(c1)N(C(=O)Cn1cnc3c(sc4nc(-c5ccccc5)ccc43)c1=O)CCO2
722 | O=C(Nc1ccc(F)cc1)N1CCC(N2CCN(Cc3cccc(F)c3)C(=O)C2=O)CC1
748 | CC(C)NC(=O)N1CCc2c(c(-c3nc(Cc4ccccc4)no3)nn2C)C1
718 | CCN1C(=O)c2cccc3c(NC(=O)Cc4cccs4)ccc1c23
738 | Cc1ccc(Nc2cc(C)nc(N3CCN(C(=O)Nc4ccccc4)CC3)n2)cc1
940 | O=C(Cn1cccc(-c2nc(-c3ccccc3)no2)c1=O)Nc1cccc(Br)c1
868 | CC(=O)N1c2ccc(S(=O)(=O)N3CCCCC3)cc2CC1C(=O)NCCc1ccccc1 (centres undefined)
837 | COc1ccc(C2(C(=O)NCCC3CCN(C(=O)Nc4ccccc4F)CC3)CC2)cc1
827 | Cc1cc(S(=O)(=O)N(C)C2CCc3nn(CC4CC4)c(=O)n3CC2)ccc1Cl (centres undefined)
811 | COCCNC(=O)C1CN(S(=O)(=O)c2ccccc2)CC12CCCCC2 (centres undefined)
